From patent publication US12275766B2, “Neoantigen peptide mimics” (Janssen Biotech, Inc., priority 2020, dated 2025)
Ends that are not written are not given here.

How the values were obtained:
[1] = test system: CD8+ T cells from HLA-02:01+ PBMCs; assay: Frequency of double positive T cells for mimic and mutant tetramers (flow cytometry); type: cell-based, human
Protocol: Preparation of PBMCs: Vials of HLA-02:01^+ PBMCs frozen from donors (Hemacare) were removed from LN2 storage and rapidly thawed in a 37° C. water bath. The cells were transferred to a 50 mL conical tube containing 40 mL warm media (RPMI 1640 medium+10% fetal bovine serum (FBS)+1% Penicillin streptomycin solution), spun at 1300 rpm for 5 minutes at room temperature. The cell pellet was resuspended in 2 mL EASYSEP™ buffer and cells were counted using trypan blue live dead marker using a haemocytometer.
Enrichment of CD8+ T cells: To enrich the CD8+ T cells from the PBMCs, EASYSEP™ Human CD8+ T Cell Isolation Kit was used as per the manufacturer's instructions. Post enrichment, the cell pellet was resuspended in Dulbecco's phosphate-buffered saline (DPBS) and cells were counted as above. To determine the viability, LIVE/DEAD™ Fixable Violet Dead Cell Stain Kit was used at 0.5 μL/1×10^6/100 μL cell suspension and incubated at room temperature for 20 minutes. At the end of incubation period, FACS buffer (DPBS+2% FBS) was added and the cells were spun at 1300 rpm for 5 minutes at room temperature. The cell pellet was resuspended in FACS buffer, trypan blue was added, and the cell count was determined using a haemocytometer. The cell density was maintained at 1×10^6/50 μL FACS buffer. 3 μL Fc block was added per 1×10^6 cells and incubated for 10 minutes at room temperature in the dark. At the end of the incubation, mimic tetramer and the corresponding mutant tetramers were added at 3 μL tetramer/1×10^6 cells.
For frequency determination, 2×10^6 cells were used for test samples and 1×10^6 cells were used for control samples where negative tetramers were added in place of the mimic or mutant tetramers. A sample where no tetramers were added was kept as unstained control. The samples were incubated at room temperature for 30 minutes in dark. At the end of incubation period, CD8 antibody was added at 2 μL/1×10^6 cells and the samples were incubated for another 30 minutes at room temperature in dark. At the end of incubation, FACS buffer was added to the samples and the samples were spun at 1300 rpm for 5 minutes. The pellet was resuspended in 5 mL FACS buffer and the cells were spun at 1300 rpm for 5 minutes. The pellet was resuspended in 200 μL FACS buffer and events were acquired using the Novocyte flow cytometer.
The cells were acquired on the Novocyte flow cytometer and gated on forward scatter height (FSC-H) versus side scatter height (SSC-H). The cells high on FSC-H versus SSC-H were gated as lymphocytes. From the lymphocytes, live cells were gated by selecting the pacific blue negative cells on an FSC-H versus Pacific Blue-H plot. From the live cells, single cells were gated on FSC-H versus forward scatter area (FSC-A). CD8+ T cells were gated from the singlets as Alexa Fluor 700 positive cells. For gating phycoerythrin (PE) conjugated tetramer positive cells, the CD8^+ cells were gated on Alexa Fluor 700-H versus PE-H and the double positive cells were considered as CD8+ tetramer+. For gating allophycocyanin (APC) conjugated tetramer positive cells, the CD8^+ cells were gated on Alexa Fluor 700-H versus APC-H and the double positive cells were considered as CD8+tetramer+. All gates were set using the negative tetramers to eliminate non-specific binding. The dual positive cells that were mimic and mutant tetramer positive cells were gated by plotting PE-H versus APC-H within the CD8^+ cells.

HLA-A*02:01 = HLA-A*02:01 (Homo sapiens, UniProt P04439, D140Y/D185E/D98H/E176V/E277Q/G131W/G231S/I119V/I121R/I166T/I218V/L300P/L318F/N151K/N90K/P208A/P217A/Q86G/Q94H/R138H/R169H/T345S); type: binding; conditions: for Average %: average of Exch I and Exch II, relative to exchange control peptide Pos (100%); for Exch I (%): first UV-induced peptide exchange; for Exch I (%) / Exch II (%): absorbance relative to exchange control peptide Pos (100%); for Exch II (%): second UV-induced peptide exchange

Substance | Frequency (%) of double positive T cells within CD8+ compartment of donors ([1]; Donor ID 17042380) [%] | Frequency (%) of double positive T cells within CD8+ compartment of donors ([1]; Donor ID 17042765) [%] | Frequency (%) of double positive T cells within CD8+ compartment of donors ([1]; Donor ID 18047563) [%] | Frequency (%) of double positive T cells within CD8+ compartment of donors ([1]; Donor ID 19053796) [%] | Frequency (%) of double positive T cells within CD8+ compartment of donors ([1]; Donor ID 19054141) [%] | Frequency (%) of double positive T cells within CD8+ compartment of donors ([1]; Donor ID 19054183) [%] | Frequency (%) of double positive T cells within CD8+ compartment of donors ([1]; Donor ID 19054445) [%] | Frequency (%) of double positive T cells within CD8+ compartment of donors ([1]; Donor ID 19054456) [%] | T-cells positive for mutant-mimic pair ([1]; donor 19053796) | Frequency (%) of double positive T cells within CD8+ compartment of donors ([1]; Donor ID 20001476) [%] | Frequency (%) of double positive T cells within CD8+ compartment of donors ([1]; Donor ID 20001487) [%] | Frequency (%) of double positive T cells within CD8+ compartment of donors ([1]; Donor ID 20061357) [%] | Frequency (%) of double positive T cells within CD8+ compartment of donors ([1]; Donor ID 20061599) [%] | Frequency (%) of double positive T cells within CD8+ compartment of donors ([1]; Donor ID 20061661) [%] | Frequency (%) of double positive T cells within CD8+ compartment of donors ([1]; Donor ID 20062224) [%] | Frequency (%) of double positive T cells within CD8+ compartment of donors ([1]; Donor ID 20062384) [%] | Average % (HLA-A*02:01) [%] | Exch I (%) (HLA-A*02:01) | Exch II (%) (HLA-A*02:01) | other results
Mutant (SEQ ID NO: 18) Mimic (SEQ ID NO 68): pair of tetramers loaded with mutant QLWVDSTPL (APC) and mimic QLWVDSTPV (PE) (not fully specified) | 0.01 | 0 | 0 | 0 | 0 | 0 | 0.01 | 0 | positive |  |  |  |  |  |  |  |  |  |  | 
Mutant (SEQ ID NO: 23) Mimic (SEQ ID NO: 78): pair of tetramers loaded with mutant VVPCEPPEV (PE) and mimic VLPCEPPEV (APC) (not fully specified; cysteine pairing not given here) |  |  |  |  |  |  |  |  |  | 0.153 | 0.000 | 0.006 | 0.000 | 0.000 | 0.000 | 0.023 |  |  |  | 
Mutant (SEQ ID NO: 9) Mimic (SEQ ID NO: 45): pair of tetramers loaded with mutant ILNREIDFA (PE) and mimic ILNREIDFV (APC) (not fully specified) | 0.05 | 0.14 | 0.01 | 0.1 | 0.03 | 0.01 | 0.24 | 0.01 | positive |  |  |  |  |  |  |  |  |  |  | T-cells positive for mutant-mimic pair ([1]; donor 17042765, frequency of double positive T cells at least 2-fold higher than the background (negative tetramers)): positive; T-cells positive for mutant-mimic pair ([1]; donor 19054445, frequency of double positive T cells at least 2-fold higher than the background (negative tetramers)): positive
Mutant (SEQ ID NO: 3) Mimic (SEQ ID NO: 32): pair of tetramers loaded with mutant YLDSGIHFG (APC) and mimic YLDSGIHFV (PE) (not fully specified) |  |  |  |  |  |  |  |  |  | 0.051 | 0.000 | 0.007 | 0.000 | 0.000 | 0.000 | 0.023 |  |  |  | 
99 (NLVPMVATL) [compound 99] |  |  |  |  |  |  |  |  |  |  |  |  |  |  |  |  | 23.6 | 26.8 | 20.4 | 
6 (LVVVGACGV) [compound 6] |  |  |  |  |  |  |  |  |  |  |  |  |  |  |  |  | 7.0 | 6.5 | 7.5 | 
